The results in this text go back to US20010008892A1 (priority 1998, published 2001).

One data set addresses HIV-1 protease (Human immunodeficiency virus type 1 group M subtype B, UniProt P04585). Briefly: Fluorogenic assay for screening inhibitors of HIV protease. To be noted: for inhibition at 0.0005 µM: pH 4.5, read-out: % Inhib. (0.5 nM); for % Inhib. (0.5 nM): compound concentration 0.5 nM, fluorogenic substrate 1.3 μM, pH 4.5, 30° C.
The nature of data set [1]: Cytotoxicity in MT4 cells (LC50, 50% of the cells remain viable). The data set is classed as cell-based. Conditions: human. From the text:
(§1) The IC50 is the concentration of compound that gives 50% inhibition of the cytopathic effect of HIV. The LC50 is the concentration of compound at which 50% of the cells remain viable.

A further data set has as its system HIV. Briefly: Antiviral activity: inhibition of the cytopathic effect of HIV in MT4 cells. The data set is classed as cell-based.
Description: as §1

The test system of the next data set is MT4 cells. In words: Cytotoxicity in MT4 cells (LC50, 50% of the cells remain viable). It is filed as cell-based. To be noted: MT4 cells; concentration at which 50% of the cells remain viable.
Description: as §1

The mark [2] stands for this setting: Human immunodeficiency virus 1, MT4 cells, 50% inhibition of the cytopathic effect of HIV, read-out: EC50.
Setting [3] is: MT4 cells, 50% inhibition of the cytopathic effect of HIV, read-out: EC50.

Structures are written as SMILES. Read-outs that look alike come from different tables or passages of the source.

Description for HIV-1 protease: A compound of the invention is dissolved in DMSO. A small aliquot is diluted with DMSO to 100 times the final concentration desired for testing. The test is carried out in a 6×50 mm tube in a total volume of 300 microliters. The final concentrations of the components in the reaction buffer are: 125 mM sodium acetate, 1 M sodium chloride, 5 mM dithiothreitol, 0.5 mg/ml bovine serum albumin, 1.3 μM fluorogenic substrate, 2% (v/v) dimethylsulfoxide, pH 4.5. After addition of inhibitor, the reaction mixture is placed in the fluorometer cell holder and incubated at 30° C. for several minutes. The reaction is initiated by the addition of a small aliquot of cold HIV protease. The fluorescence intensity (excitation 340 nm, emmision 490 nM) is recorded as a function of time. The reaction rate is determined for the first six to eight minutes. The observed rate is directly proportional to the moles of substrate cleaved per unit time. The percent inhibition is 100×(1- (rate in presence of inhibitor)/(rate in absence of inhibitor)).
The test compounds were then tested at a concentration of 0.5 nM.

In the case of `CC(C)c1nc(CN(C)C(=O)N[C@H](C(=O)N[C@@H](Cc2ccccc2)[C@H](O)CN2CCN(Cc3cncs3)C[C@H]2C(=O)NC(C)(C)C)C(C)C)cs1` [Example 12, N′-[(1S)-1-[[[(1S,2R)-3-[(2S)-2-[[(1,1-Dimethylethyl)amino]carbonyl]-4-(5-thiazolylmethyl)-1-piperazinyl]-2-hydroxy-1-(phenylmethyl)propyl]amino]carbonyl]-2-methylpropyl]-N-methyl-N-[2-(1-methylethyl)-4-thiazolylmethyl]urea], the inhibition at 0.0005 µM on HIV-1 protease was 61%. For the same compound, the CC50 in data set [1] amounted to 70300 nM. Moreover, the EC50 in the data set with HIV (setting [2]) turned out to be 13 nM.

As to `CC(C)c1nc(CN(C)C(=O)N[C@H](C(=O)N[C@@H](Cc2ccccc2)[C@H](O)CN2CCN(Cc3ccccc3)C[C@H]2C(=O)NC(C)(C)C)C(C)C)cs1` [Example 13, N′-[(1S)-1-[[[(1S,2R)-3-[(2S)-2-[[(1,1-Dimethylethyl)amino]carbonyl]-4-(phenylmethyl)-1-piperazinyl]-2-hydroxy-1-(phenylmethyl)propyl]amino]carbonyl]-2-methylpropyl]-N-methyl-N-[2-(1-methylethyl)-4-thiazolylmethyl]urea], the inhibition at 0.0005 µM on HIV-1 protease came to 66%. Also, in data set [1], the CC50 worked out at 60400 nM. Further, the concentration for a half-maximal effect (EC50) in the data set on HIV (setting [2]) is 48 nM.

Regarding `COc1cc(CN2CCN(C[C@@H](O)[C@H](Cc3ccccc3)NC(=O)[C@@H](NC(=O)N(C)Cc3csc(C(C)C)n3)C(C)C)[C@H](C(=O)NC(C)(C)C)C2)ccc1O` [Example 14, N′-[(1S)-1-[[[(1S,2R)-3-[(2S)-2-[[(1,1-Dimethylethyl)amino]carbonyl]-4-[(4-hydroxy-3-methoxyphenyl)methyl]-1-piperazinyl]-2-hydroxy-1-(phenylmethyl)propyl]amino]carbonyl]-2-methylpropyl]-N-methyl-N-[2-(1-methylethyl)-4-thiazolylmethyl]urea], at HIV-1 protease, the inhibition at 0.0005 µM is 63%. Also, the CC50 in data set [1] amounted to 22700 nM. The EC50 in the data set on HIV (setting [2]) came to 41 nM.

Consider `COc1ccc(CN2CCN(C[C@@H](O)[C@H](Cc3ccccc3)NC(=O)[C@@H](NC(=O)OCc3cnc(C(C)C)s3)C(C)C)[C@H](C(=O)NC(C)(C)C)C2)cc1OC` [Example 19, 2-(1-Methylethyl)-5-thiazolylmethyl-[(1S)-1-[[[(1S,2R)-3-[(2S)-4-[(3,4-dimethoxylphenyl)methyl]-2-[[(1,1-dimethylethyl)amino]carbonyl]-1-piperazinyl]-2-hydroxy-1-(phenylmethyl)propyl]amino]carbonyl]-2-methylpropyl]carbamate], for which, on HIV-1 protease, the “% Inhib. (0.5 nM)” value was 51%. This compound showed a CC50 in the data set on MT4 cells of 20700 nM. Moreover, the EC50 with HIV (setting [3]) was determined as 17 nM.

In the case of `CCc1ncc(COC(=O)N[C@H](C(=O)N[C@@H](Cc2ccccc2)[C@H](O)CN2CCN(Cc3ccc(OC)c(OC)c3)C[C@H]2C(=O)NC(C)(C)C)C(C)C)s1` [Example 20], the “% Inhib. (0.5 nM)” value at HIV-1 protease is 37%. In addition, the CC50 in the data set on MT4 cells was determined as 49700 nM. The concentration for a half-maximal effect (EC50) in the data set with HIV (setting [3]) was found to be 16 nM.

As for `COc1ccc(CN2CCN(C[C@@H](O)[C@H](Cc3ccccc3)NC(=O)[C@@H](NC(=O)OCc3cnc(C)s3)C(C)C)[C@H](C(=O)NC(C)(C)C)C2)cc1OC` [Example 21, 2-Methyl-5-thiazolylmethyl-[(1S)-1-[[[(1S,2R)-3-[(2S)-4-[(3,4-dimethoxylphenyl)methyl]-2-[[(1,1-dimethylethyl)amino]carbonyl]-1-piperazinyl]-2-hydroxy-1-(phenylmethyl)propyl]amino]carbonyl]-2-methylpropyl]carbamate], the “% Inhib. (0.5 nM)” value at HIV-1 protease is listed as 44%. Further, the CC50 in the data set on MT4 cells was determined as 53000 nM. For the same compound, in the data set with HIV (setting [3]), the EC50 came out at 11 nM.

As to `CC(C)[C@H](NC(=O)N(C)Cc1cncs1)C(=O)N[C@@H](Cc1ccccc1)[C@H](O)CN1CCN(Cc2cncs2)C[C@H]1C(=O)NC(C)(C)C` [Example 23, N′-[(1S)-1-[[[(1S,2R)-3-[(2S)-2-[[(1,1-Dimethylethyl)amino]carbonyl]-4-(5-thiazolylmethyl)-1-piperazinyl]-2-hydroxy-1-(phenylmethyl)propyl]amino]carbonyl]-2-methylpropyl]-N-methyl-N-(5-thiazolylmethyl)urea], the inhibition at 0.0005 µM on HIV-1 protease was 51%. The same compound registered a CC50 in data set [1] greater than 100000 nM. Moreover, in the data set on HIV (setting [2]), the EC50 is 259 nM.

Regarding `CC(C)[C@H](NC(=O)OCc1cncs1)C(=O)N[C@@H](Cc1ccccc1)[C@H](O)CN1CCN(Cc2cncs2)C[C@H]1C(=O)NC(C)(C)C` [Example 25], on HIV-1 protease, the “% Inhib. (0.5 nM)” value is 45%. The same compound gave a CC50 in the data set with MT4 cells greater than 100000 nM. The EC50 with HIV (setting [3]) was determined as 57 nM.

For the compound `CC(C)CN(C[C@@H](O)[C@H](Cc1ccccc1)NC(=O)[C@@H](NC(=O)N(C)Cc1csc(C(C)C)n1)C(C)C)C(=O)NC(C)(C)C` [Example 26], at HIV-1 protease, the inhibition at 0.0005 µM is 42%. Besides, the CC50 in data set [1] (MT4 cells, concentration at which 50% of the cells remain viable, read-out: LC50 (the source's name)) was 17400 nM. Besides, it took 817 nM to reach a half-maximal effect in the data set on HIV (Human immunodeficiency virus 1, MT4) (EC50).

In the case of `CC(C)c1nc(CN(C)C(=O)N[C@H](C(=O)N[C@@H](Cc2ccccc2)[C@H](O)CN(C(C)C)S(=O)(=O)c2ccc(N)cc2)C(C)C)cs1` [Example 29, N′-[(1S)-1-[[[(1S,2R)-3-[[(4-Aminophenyl)sulfonyl](1-methylethyl)amino]-2-hydroxy-1-(phenylmethyl)propyl]amino]carbonyl]-2-methylpropyl]-N-methyl-N-[2-(1-methylethyl)-4-thiazolylmethyl]urea], at HIV-1 protease, the inhibition at 0.0005 µM was determined as 64%. The compound further gave a CC50 in data set [1] of 31200 nM. Also, the concentration giving a half-maximal response (EC50) with HIV (setting [2]) is 175 nM.

Regarding `CC(C)c1ncc(COC(=O)N[C@H](C(=O)N[C@@H](Cc2ccccc2)[C@H](O)CN2C[C@H]3CCCC[C@H]3C[C@H]2C(=O)NC(C)(C)C)C(C)C)s1` [Example 30, 2-(1-Methylethyl)-5-thiazolylmethyl-[(1S)-1-[[[(1S,2R)-3-[(3S)-3-[[(1,1-dimethylethyl)amino]carbonyl](4aα,8aα)octahydro-2-isoquinolinyl]-2-hydroxy-1-(phenylmethyl)propyl]amino]carbonyl]-2-methylpropyl]carbamate], the “% Inhib. (0.5 nM)” value at HIV-1 protease was determined as 55%. The compound further showed a CC50 in the data set with MT4 cells of 17900 nM. Also, in the data set on HIV (setting [3]), the EC50 is 20 nM.

On to `CC(C)c1ncc(CN(C)C(=O)N[C@H](C(=O)N[C@@H](Cc2ccccc2)[C@H](O)CN2C[C@H]3CCCC[C@H]3C[C@H]2C(=O)NC(C)(C)C)C(C)C)s1` [Example 31, N′-[(1S)-1-[[[(1S,2 R)-3-[(3S)-3-[[(1,1-Dimethylethyl)amino]carbonyl](4aα,8aα)-octahydro-2-isoquinolinyl]-2-hydroxy-1-(phenylmethyl)propyl]amino]carbonyl]-2-methylpropyl]-N-methyl-N-[2-(1-methylethyl)-5-thiazolylmethyl]urea], for which, on HIV-1 protease, the “% Inhib. (0.5 nM)” value turned out to be 48%. This compound gave a CC50 in the data set on MT4 cells of 17200 nM. Also, the EC50 in the data set with HIV (setting [3]) was found to be 58 nM.

Regarding `CC(C)c1nc(CN(C)C(=O)N[C@H](C(=O)N[C@@H](Cc2ccccc2)[C@H](O)CN2CC[C@@H](OCc3cncs3)C[C@H]2C(=O)NC(C)(C)C)C(C)C)cs1` [Example 32, N′-[(1S)-1-[[[(1S,2R)-3-[(2S,4R)-2-[[(1,1-Dimethylethyl)amino]carbonyl]-4-(5-thiazolylmethoxy)-1-piperidinyl]-2-hydroxy-1-(phenylmethyl)propyl]amino]carbonyl]-2-methylpropyl]-N-methyl-N-[2-(1-methylethyl)-4-thiazolylmethyl]urea], the inhibition at 0.0005 µM on HIV-1 protease was 66%. Also, in data set [1], the CC50 turned out to be 64100 nM. Also, the EC50 with HIV (setting [2]) was 15 nM.

As a reminder, the EC50 is the concentration at which the effect is half-maximal.
